In patent US20250275993A1, “GLYCOSYLATION INHIBITORS AS THERAPEUTICS FOR STROKE” (The Regents of the University of California, priority 2022, published 2025):

How the values were obtained:
O-glycan of BCEC lysates = assay: O-glycan analysis in BCEC lysates (MALDI-Tof); assay type: cell-based, bovine; conditions: 40 μM ManN
Method: For O-glycan analysis, homogenized cell samples were treated with 50 mM NaOH in presence of 1M NaBH4 for 16 hrs at 45° C. The reaction mixture was neutralized using ice-cold 30% acetic acid slowly. The neutralized reaction mixture was then passed over Dowex 50-X cation exchange resin to remove sodium ion and lyophilized. Excess boric acid generated during neutralization was then removed by co-evaporation using acidified methanol and methanol respectively. Finally the O-glycan was purified by passing over C18 cartridge. Dried and purified O-glycan was then methylated and used for O-glycan analysis after permethylation. Permethylated samples were then dissolved in absolute methanol and mixed with SDHB (Super-DHB) MALDI matrix in 1:1 v/v ratio and spotted on maldi plate. Mass spectral data was acquired using Bruker AutoFlex mass spectrometer at positive, reflectron mode. The mass spectral data were analyzed and annotated using GlycoWork Bench software and masses matched with the proposed structures were annotated. The mono-isotopic ion intensities are taken for calculation.

[1] = ManN stability in wound fluid from S. aureus infected mice; assay type: in vitro ADME, mouse; conditions: up to 24 hours at 37° C.
Method: To test ManN stability in wound fluid collected from mice with skin infection as described below, 1.5 μl of 5% ManN solution was added to each 200 μl wound fluid which was first diluted 1:1 (v/v) with PBS. At each time point, samples were taken from 37° C. incubator and stored at −80° C. Plasma proteins were precipitated by adding ice cold acetonitrile to plasma: acetonitrile 1:3 (v/v) ratio. Samples were kept over ice for 1 hr and then centrifuged at 12000 g for 10 min at 7° C. to form a pellet. Supernatants were transferred to other tubed, dried down on a Speed Vac and then reconstituted in UltraPure distilled water and filtered through pre-washed Nanosep 3K Omega filters (Pall Corporation). The filtrate was dried down on Speed Vac. The dry samples were dissolved in 100 μl of water and 2 μl plasma or wound fluid sample was subjected to HPLC analysis. Neutral and amino sugars were separated on a Dionex CarboPac PAI column 4 mm×250 mm with 4 mm×50 mm guard column. An isocratic gradient of 19 mM sodium hydroxide with 0.95 mM sodium acetate was used at a flow rate of 1 ml/min with 20 min run. Data was collected using the Dionex ICS-3000 HPLC system with pulsed amperometric detector using standard Quad waveform. ManN was identified and quantified by comparison with monosaccharide standard using Thermo Scientific Chromeleon software. No ManN samples served as negative controls. […]

AML12 liver cells = assay: AML12 proliferation assay; assay type: cell-based, mouse
Method: (§1) Proliferation assays with fibroblasts were done in low-glucose DMEM containing 1% FBS, with or without 10 ng/ml bFGF, or 100 ng/ml human EGF and the assay was ended at day 3. ARPE-19 cells were gently lifted with 0.025% trypsin and plated in RtEGM media (Clonetics) containing 2% FBS, L-glutamine, human bFGF and GA-1000. Once cells were attached to plates, serum-free RtEGM media was used to maintain the cultures. For proliferation assays, 1500 human RPE cells were plated into 96-well plates in low-glucose DMEM containing 1% FBS. A673, U87MG, Calu6 and AML12 cells were grown until confluent and were then harvested and re-suspended in appropriate assay media. For proliferation assays, cells were plated at the density of 1000-2000 cells/well in low-glucose DMEM containing 5% FBS or otherwise stated. Bovine pituitary cells (pituitary folliculostellate cells) were isolated as previously described. For proliferation assays with human epidermal keratinocytes, human DMVECs and human dermal fibroblast cells, 1000 cells/well were plated in low-glucose DMEM containing 1% FBS with or without various growth factors. The assay was ended at day 3 for bovine pituitary cells and at day 4 for all the other cell types. […] Four days later, tumor cell growth was measured by the MTS assay (Promega, Madison, WI), a colorimetric assay that measures metabolic activity of viable cells. […]

[2] = molecular target: T1, α-mannosidase from Jack Bean (Canavalia ensiformis, UniProt C0HJB3); assay: α-mannosidase activity assay; assay type: biochemical; conditions: 400 μM
T1 construct: purchased M7257
T1 sequence (C0HJB3 whole entry): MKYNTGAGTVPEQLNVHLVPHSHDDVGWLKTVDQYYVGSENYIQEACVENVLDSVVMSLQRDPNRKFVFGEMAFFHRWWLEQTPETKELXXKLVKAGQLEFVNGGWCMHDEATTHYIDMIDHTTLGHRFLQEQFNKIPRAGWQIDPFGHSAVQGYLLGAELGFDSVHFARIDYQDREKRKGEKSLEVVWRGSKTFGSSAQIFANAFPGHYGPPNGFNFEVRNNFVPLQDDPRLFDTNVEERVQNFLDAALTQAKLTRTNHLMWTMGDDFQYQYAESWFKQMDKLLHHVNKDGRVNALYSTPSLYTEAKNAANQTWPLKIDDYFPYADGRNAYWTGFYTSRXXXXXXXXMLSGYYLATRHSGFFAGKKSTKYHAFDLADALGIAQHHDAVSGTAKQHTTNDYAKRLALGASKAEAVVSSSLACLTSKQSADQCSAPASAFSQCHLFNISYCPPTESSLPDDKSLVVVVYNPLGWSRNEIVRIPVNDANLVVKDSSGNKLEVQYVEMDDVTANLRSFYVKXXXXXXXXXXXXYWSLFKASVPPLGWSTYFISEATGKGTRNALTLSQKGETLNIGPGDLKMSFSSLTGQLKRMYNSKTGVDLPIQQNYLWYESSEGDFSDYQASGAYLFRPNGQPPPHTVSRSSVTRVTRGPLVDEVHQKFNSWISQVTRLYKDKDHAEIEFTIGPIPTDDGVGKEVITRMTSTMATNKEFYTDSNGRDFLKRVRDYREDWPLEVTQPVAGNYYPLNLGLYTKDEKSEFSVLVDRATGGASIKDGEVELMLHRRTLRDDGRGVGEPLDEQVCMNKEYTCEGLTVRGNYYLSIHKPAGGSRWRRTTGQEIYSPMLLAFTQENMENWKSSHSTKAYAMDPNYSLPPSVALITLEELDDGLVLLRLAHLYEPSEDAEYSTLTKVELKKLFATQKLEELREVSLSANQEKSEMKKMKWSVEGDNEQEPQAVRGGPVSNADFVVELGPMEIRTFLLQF
Method: a-mannosidase activity was measured using substrate p-nitrophenyl α-mannopyranoside (1 mM). Enzyme from Jack Bean (M7257) (final concentration of 0.077 U) was incubated at 37° C. in a final volume of 50 μl of 50 mM potassium phosphate buffer, pH 7.5. α-glucosidase was assayed with substrate p-nitrophenyl a-glucoside (7 mM). Enzyme from Saccharomyces cerevisiae-type 1 (Sigma, G5003) (final concentration of 0.1 U) was incubated at 37° C. in a final volume of 50 μl of PBS, pH 7.5. β-Glucosidase was assayed with substrate 4-nitrophenyl β-D-glucopyranoside (Roche). Enzyme from almond (Sigma, G0395) (final concentration of 0.002 U) was incubated at 37° C. in a final volume of 50 μl of PBS, pH 7.5 […]. The incubation was stopped by addition of an equal volume of acid-based stop solution (R&D systems, 895032). Enzymatic activity was measured at 405 nm. α-glucosidase from Saccharomyces cerevisiae type I (G5003) with p-nitrophenyl α-D-glucopyranoside (Sigma, N1377) as the substrate.

U87MG = U87MG proliferation assay; assay type: cell-based; conditions: ManN
Method: as §1

Structure (SMILES): N[C@H](C=O)[C@@H](O)[C@H](O)[C@H](O)CO [ManN, 2-Amino-2-deoxy-D-mannose]
- O-glycosylation (O-glycan of BCEC lysates): overall decrease in O-glycosylation
- loss of free ManN in wound fluid [1]: No significant loss
- sensitivity of AML12 to ManN toxicity (AML12 liver cells; 5 mM level of ManN): most sensitive one
- proliferation of AML12 (AML12 liver cells; alone or in combination with growth factors): no increases in proliferation
- inhibitory activity on α-mannosidase [2]: inhibitory activity
- growth of U87MG (U87MG): did not promote growth
